Earlier results as cited in PMC10425256, “Antioxidant and Enzyme Inhibitory Potential of Streptomyces sp. G-18 Grown in Various Media” (International Journal of Microbiology, 2023).

| Compound | inhibition against lipase enzymes (lipase enzymes) | AChE inhibition (AChE) |
| --- | --- | --- |
| Cyclipostins | showed inhibition |  |
| CCCCC/C=C\C/C=C\C[C@@H](C[C@@H]1OC(=O)[C@H]1CCCCCC)OC(=O)[C@H](CC(C)C)NC=O [lipstatin] | showed inhibition |  |
| CC(C)=CCC/C(C)=C/Cc1ccc(O)c2nc3cccc(O)c3nc12 [Geranylphenazinediol] |  | low micromolar range |
